What was measured:
full length AKT3 = target: T1, full length AKT3 (Homo sapiens, UniProt Q9Y243); assay: AKT enzyme assay (substrate phosphorylation, SPA), full length AKT3; format: biochemical; conditions: in at least one experimental run; pIC50 = -log(IC50), IC50 in molar units
T1 construct: Full length AKT2 and full length AKT3 were cloned, expressed and purified in a similar fashion; His tag (inferred: made in a similar fashion to AKT1 in pFastbacHTb with nickel purification) (N); made in house; host or cells: baculovirus; insect cells (by analogy with AKT1)
T1 sequence (Q9Y243 whole entry): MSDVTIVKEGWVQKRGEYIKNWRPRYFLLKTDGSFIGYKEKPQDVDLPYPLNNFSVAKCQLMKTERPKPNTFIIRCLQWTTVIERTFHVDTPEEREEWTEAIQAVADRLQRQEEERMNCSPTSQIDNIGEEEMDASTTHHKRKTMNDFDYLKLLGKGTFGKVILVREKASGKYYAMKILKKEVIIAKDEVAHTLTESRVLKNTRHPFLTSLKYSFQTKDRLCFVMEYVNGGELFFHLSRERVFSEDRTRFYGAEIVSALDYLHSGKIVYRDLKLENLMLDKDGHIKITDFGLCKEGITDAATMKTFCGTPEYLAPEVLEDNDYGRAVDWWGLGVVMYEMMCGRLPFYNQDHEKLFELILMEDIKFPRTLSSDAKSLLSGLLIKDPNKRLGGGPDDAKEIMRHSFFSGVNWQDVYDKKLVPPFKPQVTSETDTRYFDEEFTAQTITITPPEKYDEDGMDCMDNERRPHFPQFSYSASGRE
Procedure: Compounds of the present invention are tested for AKT 1, 2, and 3 protein serine kinase inhibitory activity in substrate phosphorylation assays. This assay examines the ability of small molecule organic compounds to inhibit the serine phosphorylation of a peptide substrate. […] AKT 1, 2 and 3 are also commercially available from Upstate USA, Inc. The method measures the ability of the isolated enzyme to catalyze the transfer of the gamma-phosphate from ATP onto the serine residue of a biotinylated synthetic peptide SEQ. […] Substrate phosphorylation is detected by the following procedure:
ATP/well, 1 mM CHAPS, 2 mM DTT, and 1 ul of test compound in 100% DMSO. The reaction is stopped by the addition of 50 ul SPA bead mix (Dulbecco's PBS without Mg^2+ and Ca^2+, 0.1% Triton X-100, 5 mM EDTA, 50 uM ATP, 2.5 mg/ml Streptavidin-coated SPA beads.) The plate is sealed, the beads are allowed to settle overnight, and then the plate is counted in a Packard Topcount Microplate Scintillation Counter (Packard Instrument Co., Meriden, Conn.).
The data for dose responses are plotted as % Control calculated with the data reduction formula 100*(U1−C2)/(C1−C2) versus concentration of compound where U is the unknown value, C1 is the average control value obtained for DMSO, and C2 is the average control value obtained for 0.1M EDTA. […]

full length AKT1 = target: T2, full length AKT1 (Homo sapiens, UniProt P31749); assay: AKT enzyme assay (substrate phosphorylation, SPA), full length AKT1; format: biochemical; conditions: in at least one experimental run; pIC50 = -log(IC50), IC50 in molar units
T2 construct: Full-length human AKT1 gene was amplified by PCR; His tag (from vector pFastbacHTb; N-terminal position is own knowledge of the vector) (N); made in house; host or cells: baculovirus; Sf9 / T. ni insect cells
T2 sequence (P31749 whole entry): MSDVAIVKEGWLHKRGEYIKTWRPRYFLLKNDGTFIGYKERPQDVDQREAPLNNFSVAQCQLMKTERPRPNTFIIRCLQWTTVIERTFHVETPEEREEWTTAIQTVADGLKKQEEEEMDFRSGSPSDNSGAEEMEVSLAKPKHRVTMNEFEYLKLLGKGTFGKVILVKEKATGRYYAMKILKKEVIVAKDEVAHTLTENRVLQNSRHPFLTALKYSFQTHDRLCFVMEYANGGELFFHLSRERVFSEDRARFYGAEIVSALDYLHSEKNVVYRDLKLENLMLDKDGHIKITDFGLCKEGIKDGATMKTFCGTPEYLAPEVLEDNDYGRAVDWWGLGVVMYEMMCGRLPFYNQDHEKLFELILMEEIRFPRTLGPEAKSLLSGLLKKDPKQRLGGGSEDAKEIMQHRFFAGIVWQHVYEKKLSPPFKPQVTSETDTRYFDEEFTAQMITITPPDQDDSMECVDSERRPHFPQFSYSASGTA

Row | pIC50 value against full length AKT3 (full length AKT3) | pIC50 value against full length AKT1 (full length AKT1) | Compound
1 | 8.4 | 9.0 | Cn1ncc(Cl)c1-c1cc(C(=O)N[C@H](CN)Cc2cccc(F)c2)oc1Cl [Example 137, N-{(1S)-2-amino-1-[(3-fluorophenyl)methyl]ethyl}-5-chloro-4-(4-chloro-1-methyl-1H-pyrazol-5-yl)-2-furancarboxamide]
2 | 7.6 | 8.8 | Cc1sc(C(=O)N[C@H](CN)Cc2cccc(F)c2)cc1-c1c(Cl)cnn1C [Example 161, N-{(1S)-2-amino-1-[(3-fluorophenyl)methyl]ethyl}-4-(4-chloro-1-methyl-1H-pyrazol-5-yl)-5-methyl-2-thiophenecarboxamide]

— patent publication US8273782B2, “Inhibitors of Akt activity” (GlaxoSmithKline LLC, priority 2007, dated 2012)
